What is called IC50 is the midpoint of a concentration-inhibition curve. High values mean weaker potency, low ones greater potency.

For the assay, the target named is T1, human MRGPR X4 (Homo sapiens, UniProt Q96LA9).
T1 construct: expressed in transfected cells
T1 sequence (Q96LA9 whole entry): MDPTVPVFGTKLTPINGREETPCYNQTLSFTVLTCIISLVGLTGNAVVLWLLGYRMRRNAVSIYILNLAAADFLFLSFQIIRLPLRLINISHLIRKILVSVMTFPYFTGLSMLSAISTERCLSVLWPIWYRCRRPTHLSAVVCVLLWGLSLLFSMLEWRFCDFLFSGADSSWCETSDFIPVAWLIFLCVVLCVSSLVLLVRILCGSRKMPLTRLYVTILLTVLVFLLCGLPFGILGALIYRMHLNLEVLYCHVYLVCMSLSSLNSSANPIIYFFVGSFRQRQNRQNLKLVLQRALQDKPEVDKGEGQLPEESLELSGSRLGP
Description: MRGPR X4 antagonist activity, IP-One Gq HTRF assay in stably transfected HEK cells. The assay is classed as cell-based. The gist of the method:
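Human MRGPR X4-expressing HEK cells, 20,000/well, were incubated with compound (10-point curve, 10 uM top, 1:3 dilutions) plus agonist (10 μM bilirubin, 20 μM deoxycholic acid or 100 μM conjugated bilirubin) in Tris/NaCl/LiCl buffer, pH 8, for 1 h at 37 °C, then 30 min at room temperature. IP-1 was read by HTRF, and IC50 was taken from the HTRF ratio.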
(In TR-FRET formats the signal depends on donor and acceptor labels being close together.)
Take `O=C(NCCc1nnc2ccccn12)c1nn(Cc2ccc(Cl)cc2)c2cc(C(F)(F)F)ccc12` [Compound 564]: the IC50 was less than 100 nM. As for `Cc1cccc2c1c(C(=O)NCCc1nnc3ccccn13)nn2Cc1ccc(Cl)cc1` [Compound 565], the figure is less than 100 nM; as for `O=C(NCCc1nnc2ccccn12)c1nn(Cc2ccc(Cl)cc2)c2cccc(Br)c12` [Compound 566], 100 to 500 nM; as for `COc1ccc2nc(Cn3nc(C(=O)NCCc4nnc5ccccn45)c4ccccc43)n(C)c2c1` [Compound 567], 1000 to 2500 nM. The molecule `Cc1ccc2nc(Cn3nc(C(=O)NCCc4nnc5ccccn45)c4ccccc43)n(C)c2c1` [Compound 568] came in with an IC50 of 501 to 1000 nM.

In the case of `Cc1cccc2nc(Cn3nc(C(=O)NCCc4nnc5ccccn45)c4ccccc43)n(C)c12` [Compound 569], the 50% inhibitory concentration (IC50) is 100 to 500 nM. As to `Cc1ccc2c(c1)nc(Cn1nc(C(=O)NCCc3nnc4ccccn34)c3ccccc31)n2C` [Compound 570], the IC50 was more than 2500 nM. The figure for `O=C(NCCc1nnc2ccccn12)c1nn(Cc2ccc(Cl)c(Cl)c2)c2ccc(F)cc12` [Compound 571] is less than 100 nM; for `O=C(NCCc1nnc2ccccn12)c1nn(Cc2ccc(Cl)cc2F)c2ccc(F)cc12` [Compound 572] it is less than 100 nM. Turning to `Cc1c(Cn2nc(C(=O)NCCc3nnc4ccccn34)c3ccccc32)oc2ccccc12` [Compound 573], the IC50 is less than 100 nM. For `Cn1c(Cn2nc(C(=O)NCCc3nnc4ccccn34)c3ccccc32)nc2cc(F)ccc21` [Compound 574], the IC50 was 100 to 500 nM.

Source of the values: patent US20240254089A1, “MODULATORS OF MAS-RELATED G-PROTEIN RECEPTOR X4 AND RELATED PRODUCTS AND METHODS” (ESCIENT PHARMACEUTICALS, INC., priority 2020, published 2024).
